Test results published in patent US20240002441A1, “PEPTIDES AND USES THEREOF IN MODULATION OF AMYLOID-BETA PROTEIN DEGRADING PROTEASES” (priority 2020, published 2024).

Experiments:
NEP = target: T1, NEP (Homo sapiens, UniProt P08473); experiment: QFS assay of Aβ-degrading enzymes: NEP (Example 6); assay type: biochemical
T1 construct: purchased R & D systems 1182-ZNC-010
Experimental: Plate reader-based enzyme assays were performed using a quenched fluorescent substrate (QFS) in a 96-well format using a SpectraMAX M4 Microplate reader (Molecular Devices). The increase in fluorescence following addition of QFS (40 μM) was taken as evidence of enzyme activity. Fluorescence was monitored over 2 h at 37° C. using κEx=320 nm and λEm=405 nm. Assays were conducted in black 96-well plates. Specific enzyme activity was expressed as a rate of substrate cleavage calculated using a standard curve of 7-methoxy-coumarin-4-acetic acid.
In all plate reader-based enzyme assays using QFS, the reaction rate (μmol of substrate cleaved/min) was calculated using linear regression analysis (GraphPad Prism software version 8.01). The reaction rates calculated were used to generate the enzyme kinetic parameters Vmax and Km through non-linear regression analysis (GraphPad Prism software, version 8.01; Michaelis-Menten equation). Where indicated, enzyme activity in the presence of peptide was expressed as a % of the enzyme alone. Data were expressed as mean±SEM and statistical significance was determined using t-tests or one-way ANOVAs followed by Tukey's post-hoc test. P<0.05 was considered as statistically significant. In all assays conducted using 96-well plates, the reaction mixtures in each well were considered an independent experiment.
SEQ ID NO:2 was assessed in a QFS assay against enzymes NEP, ECE1, ECE2, ACE1, ACE2, IDE and MMP-2 using the method in Example 2 and the following procedure. NEP, ACE1, ECE2 (0.05 ng/μL), ACE2, IDE (0.10 ng/μL), and ECE1 (6.4 ng/μL) were incubated with SEQ ID NO:2 (0.9-26 μM) or scrambled control (9 μM) for 1 h at 37° C. Prior to use, MMP2 (0.50 ng/μL) was activated using p-aminophenylmercuric acetate to a final concentration of 100 μM for 1 h at 37° C. Following activation, MMP2 was incubated with SEQ ID NO:2 for 1 h at 37° C. before adding the appropriate QFS.

STZ diabetic mouse model = experiment: STZ diabetic mouse model, inflammation and fibrosis (Example 12); assay type: in vivo; settings: 1 mg/kg subcutaneously by minipump, 4 weeks
Experimental: Mice were divided into two groups, all mice were treated with STZ (150 mg/kg) 1 week before starting treatment. Prior to STZ treatment, urine and blood samples were taken and a blood glucose test undertaken. Similarly, before treatment began, one week post STZ administration, urine and blood samples were taken and blood glucose was assessed. The two treatment groups were then treated with either vehicle only or SEQ ID NO: 2 (1 mg/kg) subcutaneously by minipump. The mice were then monitored for 4 weeks before sacrifice. Monitoring included assessing the weight of each animal every day, and taking urine and blood samples and measuring blood glucose at 2 weeks post treatment and immediately before sacrifice.

5×FAD transgenic mice = experiment: 5×FAD transgenic mouse model of Alzheimer's Disease (Example 15); assay type: in vivo
Experimental: All animal experiments were conducted in strict accordance with the Australian Code of Practice for the Care and Use of Animals for Scientific Purposes. Local approval was obtained from The University of Queensland's Animal Ethics Committee. All wild-type (WT) and transgenic mice (5×FAD tg) used were from the same litters to act as appropriate littermate controls. Thirty-four 2.5-3-month-old female and twenty-five 2.5-3-month-old male mice were used in this study. Animals were housed in groups of 3-5 animals per cage and maintained on a 12 hr light-dark cycle. Food and water were provided ad libitum.
All testing was conducted between 8 AM-6 PM, at approximately the same time each day. Prior to commencing any behavioural testing, mice were habituated to handling and handler smell to minimize handling-related stress. Each mouse was handled daily by the experimenter conducting the behavioural tasks for 30-s to 1-min each day. Handling involved picking up the mouse (by the base of the tail) from the home cage and placing in the palm of a gloved hand. This process was repeated daily, at approximately the same time each day, for a total of 8 days prior to testing. The bedding of the animals' home cage was not changed 2-days prior habituation to handling and for the duration of the behavioural tests. […]
The Active Place Avoidance (APA) task assessing longer-term spatial learning and memory was conducted on all mice as previously described (Willis E F, Bartlett P F, Vukovic J. Protocol for Short- and Longer-term Spatial Learning and Memory in Mice. Front Behav Neurosci. 2017; 11:197. https://doi:10.3389/fnbeh.2017.00197). The APA arena (Bio-Signal Group, NY, USA) consisted of a 77 cm diameter metal grid floor fenced by a 32 cm high Perspex clear circular boundary. The elevated arena sits directly below a digital video camera (Point Gray, USA) and in the middle of the room with visual cues placed on all 4 of the room walls. The visual cues consisted of black and white symbols printed on A3-sized paper. Visual cues were randomly chosen and kept constant for the 5-days of testing, and a different set of visual cues were used for post-2A treatment testing. Room lighting was set at 62-63% white light and light intensity recordings were taken by placing the luxmeter in the centre of the arena before the start of each session and kept between 60-70 lux.
The arena was set to rotate clockwise (1 rpm). The shock zone where a brief electric shock (500 ms, 0.5 mA, track-dependent) is delivered through the grid floor, is set at a 270° (pre-2A treatment) or 90° (post-2A treatment) angle and width of 60°. […] Mice were to actively avoid this shock zone while the arena rotates clockwise.
The position of the mouse in the arena was tracked using an overhead camera linked to Tracker software (Bio-Signal Group). When the centre-point of the mouse entered the shock zone, as tracked by the overhead camera linked to the tracking software, it received an electric shock. During the trials, the researcher sat quietly behind a curtain, out of view of the arena. After the completion of a trial, each mouse was returned to the home cage and the metal grid, clear Perspex boundary and underlying floor were cleaned with 70% ethanol. All scat and urine were removed following the completion of the trial.
Peptide of SEQ ID NO. 2 was dissolved in dimethyl sulfoxide (DMSO), and subsequently diluted in Dulbecco's phosphate-buffered saline (DPBS; 10% DMSO final). Pre-treatment open field/activity monitor data was used as the pseudorandomisation parameter for assigning animals to treatment groups. At 12-14 weeks, male and female 5×FAD and WT littermates were intranasally administered either 10% DMSO in DPBS as vehicle treatment or SEQ ID NO. 2 in DPBS (1 mg/kg). Treatment commenced immediately after the completion of pre-treatment behavioural testing and was administered every other day for 1 month. Body weight was measured every second day prior to intranasal dosing. […]

T1 sequence (P08473 whole entry): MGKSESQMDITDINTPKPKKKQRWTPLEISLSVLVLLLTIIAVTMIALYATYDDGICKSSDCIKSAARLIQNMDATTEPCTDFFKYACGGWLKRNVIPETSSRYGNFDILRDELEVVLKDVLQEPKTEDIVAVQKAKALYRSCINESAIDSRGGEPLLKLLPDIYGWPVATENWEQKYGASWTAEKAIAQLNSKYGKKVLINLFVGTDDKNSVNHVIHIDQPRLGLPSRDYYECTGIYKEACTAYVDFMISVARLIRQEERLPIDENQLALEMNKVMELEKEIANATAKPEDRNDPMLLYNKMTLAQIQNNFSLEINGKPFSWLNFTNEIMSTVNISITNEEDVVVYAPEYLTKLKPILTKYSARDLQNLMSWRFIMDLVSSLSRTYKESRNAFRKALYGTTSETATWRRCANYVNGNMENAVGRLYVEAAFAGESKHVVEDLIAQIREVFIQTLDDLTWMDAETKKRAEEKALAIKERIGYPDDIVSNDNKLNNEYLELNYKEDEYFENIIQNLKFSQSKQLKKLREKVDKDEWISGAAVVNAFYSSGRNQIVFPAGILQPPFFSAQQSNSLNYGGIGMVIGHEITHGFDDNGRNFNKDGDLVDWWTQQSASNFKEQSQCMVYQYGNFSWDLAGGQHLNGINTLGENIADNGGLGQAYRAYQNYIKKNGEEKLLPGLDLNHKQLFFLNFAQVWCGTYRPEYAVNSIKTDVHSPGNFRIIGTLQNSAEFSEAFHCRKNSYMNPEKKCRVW

Substance: H-SLFELGKMIL-NH2 [SEQ ID NO:2, H2N-SLFELGKMIL-NH2]
- submaximal concentration against NEP (NEP): 9 µM
- NEP activity compared with respective enzyme alone (NEP; peptide 2 μM (FIG. 2c)): significantly increased
- activity of NEP as % of enzyme alone controls (NEP; peptide 9 μM): 380%
- NEP activity, concentration dependence (NEP; peptide 0.9-26 μM): increased the activity
- blood glucose compared with vehicle treated mice (STZ diabetic mouse model): lower
- kidney IL-6 expression compared with vehicle treated mice (STZ diabetic mouse model): lower
- kidney collagen I expression compared with vehicle treated mice (STZ diabetic mouse model): lower
- kidney collagen III expression compared with vehicle treated mice (STZ diabetic mouse model): lower
- active place avoidance behaviour, 5-day post-treatment performance (5×FAD transgenic mice; Tg mice, peptide versus vehicle): improved avoidance behavior
- IL-6 protein level in the cortex compared to Tg mice treated with vehicle (5×FAD transgenic mice; Tg mice, western blotting): reduction
- TNF-α protein level in the cortex compared to Tg mice treated with vehicle (5×FAD transgenic mice; Tg mice, western blotting): reduction
- number of shocks in the APA task at day 5 of testing, post-treatment versus pre-treatment (5×FAD transgenic mice; WT or Tg mice treated with peptide): significantly more
- frequency of entry to the novel arm in y-maze test, as % of entries to all other arms, pre-treatment compared with post-treatment (5×FAD transgenic mice; between groups): did not show significant difference
- number of shocks received post-treatment (5×FAD transgenic mice; between groups): not significantly different
- time in the centre in the open field/activity test (5×FAD transgenic mice; each group of mice, pre- versus post-treatment): not significantly different
